We go through 7 compounds from US6426366B1, “Pharmaceutical compositions comprising tyrphostins” (priority 1996, dated 2002).

The test system of one data set is CD1 female mice. Description: 5 FU myelotoxicity (bone marrow nucleated cells). The data set is classed as in vivo. To be noted: 5 FU 80 mg/kg i.p. alone; five days (FIG. 15).
Data set [1] has as its system A9 mouse fibroblastic cells. Description: TNF-α-induced apoptosis and Go/G1 arrest (FACS, propidium iodide). The data set is classed as cell-based.
Method: In order to test the effect of tyrphostins on the TNF-α-induced apoptosis of the cells, A9 mouse fibroblastic cells were incubated for two hours with cycloheximide (50 μg/ml) after which the various tyrphostins were added at a final concentration of 20 μM except AG1801 that was added at the final concentration of 5 μM. Following one hour incubation with the tyrphostins, TNF-α was added to the cells at a concentration of 0.2 ng/ml and the cells were incubated for an additional ten hours.
For the next data set, the system named is A-9 cells. Description: TNF-induced cytotoxicity in vitro. It counts as cell-based, mouse. As to conditions: AG (20 μM).
Data set [2] deals with CD1 mice. Description: LPS-induced lethal toxicity in vivo. As to conditions: tyrphostin 20 mg/kg i.p. two hours prior to E. coli LPS […] i.p.
Method: In addition, the effect of tyrphostin on TNF mediated cytotoxicity in vivo was determined in mice injected with LPS (which induces TNF toxicity in vivo). E. coli LPS the concentration of 1.3 mg/mouse was injected i.p. to CD1 mice. While control mice were injected in addition with the vehicle only, the remaining mice were injected with the various tyrphostins (20 mg/kg) i.p. two hours prior to LPS injection.
Data set [3] relates to CD1 mice. In words: Cisplatin nephrotoxicity: serum creatinine and BUN. It counts as in vivo. As to conditions: tyrphostin 10 mg/kg i.p. 2 h before cisplatin 14 mg/kg i.p.; four days (FIG. 5).
From the text: Mice in the control croup received injections of the vehicle only (a stock solution of ethanol: chemaphore (50:50) diluted with saline). […] Each group consisted of three mice and the results are shown as mean levels of the measured parameter±SD.
In data set [4] the test system is CD1 mice. Description: Reduction of cisplatin-caused mouse mortality. As to conditions: cisplatin 14 mg/kg alone. It counts as in vivo.
From the text: (§1) 6 weeks old female CD1 mice were divided into the following groups:
For data set [5], the system named is CD1 mice. In words: Histopathological analysis of kidneys and small intestines after cisplatin. It counts as in vivo.
Method: Histopathological analysis of the kidneys and small intestines of the non-treated and treated mice was performed using slices from formaline fixed tissues stained with hematoxylin eosin.
For another data set, the system named is MCA-105 fibrosarcoma. In words: MCA-105 fibrosarcoma lung metastases in mice. The data set is classed as in vivo. As to conditions: for weight of the lungs of tumor bearing mice: single agent: AG1801 5 mg/kg, cisplatin 10 mg/kg or doxorubicin 10 mg/kg, 4 days after inoculation (FIG. 25).
For data set [6], the system named is Lewis Lung carcinoma cells. Description: Lewis lung carcinoma lung metastases in mice. The data set is classed as in vivo. As to conditions: agent by itself: cisplatin 4 mg/kg or AG1714 20 mg/kg (FIG. 21B).
Method: (§2) 2×10^5/mouse MCA-105 fibrosarcoma cells or Lewis Lung carcinoma cells and 5×10^4/mouse B-16 melanoma cells were injected into the tail vein of C57BL mice.
(§3) Twenty-four days after tumor inoculation, mice were sacrificed, lungs weighed and the number of metastases were scored. Each group contained 5 mice and the results are expressed as the means lungs' weights±SE.
The next data set relates to SK-28 human melanoma. In words: SK-28 human melanoma tumor xenografts in nude mice. It counts as in vivo. (In general: A xenograft is tissue or cells of one species grown in another, often human tumour cells in immunodeficient mice.)
The test system of data set [7] is human ovary carcinoma (OVCAR-3) cells. Description: OVCAR-3 human ovary carcinoma tumor volume in athymic mice. The data set is classed as in vivo. To be noted: agent by itself: cisplatin 4 mg/kg or AG1714 20 mg/kg; twenty days (FIG. 23).
Method: Athymic mice were inoculated subcutaneously (s.c.) with human ovary carcinoma (OVCAR-3) cells (3×10^6 cells/site). […] Twenty days post tumor inoculation the short (S) and long (L) diameters of the tumor were measured and the tumor volume (V) was calculated according to the formula:
Each group contained 5 mice and the results are expressed as the means±SE.
The test system of data set [8] is CD1 mice.
From the text: Each experimental group consisted of three mice and the results shown are the mean number of cells in a group±SD.
The subject of data set [9] is CD1 mice. Description: Reduction of doxorubicin-caused mouse mortality. The data set is classed as in vivo.
Method: as §1
i. Mice injected intraperitoneally (i.p.) with doxorubicin (20 mg/kg);
CD1 mice were divided into the following five groups:
i. Mice receiving, a single i.p. injection of 20 mg/kg of doxorubicin;
iii. Mice receiving a single i.p. injection of 20 mg/kg of AG1782 and two hours later an i.p. injection of 20 mg/kg of doxorubicin;
iv. Mice receiving a single i.p. injection of 20 mg/kg of AG126 and two hours later an i.p. injection of 20 mg/kg of doxorubicin.
The % mortality in each of the above groups was determined by scoring the number of dead mice every day until 10 days after injection.
For data set [10], the system named is primary rat cardiomyocytes cultures. In words: Doxorubicin-induced cardiotoxicity in vitro (cellular beating). To be noted: doxorubicin 10 μM alone; 24 hours. It counts as cell-based.
Method: The cardiomyocyte cultures were divided into the following, four groups receiving:
Cells receiving doxorubicin at a concentration of 10 μM; and
The rate of beats-of clusters of cardiomyocytes (“mini-hearts”) was determined 24 hours after beginning of incubation.
For data set [11], the system named is CD1 mice. In words: Doxorubicin lymphotoxicity (weight of spleen and thymus). To be noted: doxorubicin 10 mg/kg i.p. alone; 72 hours. It counts as in vivo.
Method: 72 hours after doxorubicin administration the mice were sacrificed and the weight of the spleen and thymus of the mice was determined as parameters of lymphotoxicity. Each experimental group consisted of three mice and the results are mean no. of cells±SD. As control, the mice received an injection of the vehicle only instead of doxorubicin.
Data set [12] concerns CD1 mice. In words: Doxorubicin induced myelotoxicity (femur bone marrow nucleated cells, CFU). As to conditions: doxorubicin 10 mg/kg i.p. alone; 3 days (FIG. 12B).
Method: CD1 mice were divided into the following groups:
Mice receiving an i.p. injection of doxorubicin (10 mg/kg) alone;
Mice receiving one injection of the vehicle and two hours later an i.p. injection of doxorubicin (10 mg kg,).
3 days later, the number of bone marrow nucleated cells and colony forming units (CFU) in the femurs of the treated mice was determined (Nikerich, D. A., et al., J. Immunopharmacol., 8:299-313, 1986). Each group contained 3 mice and the results are expressed as a means±SD.
The number of femur nucleated bone marrow cells in the treated mice was determined three days (FIG. 13A) and at various times (FIG. 13B) post doxorubicini administration.
CD1 mice were divided into five groups:
Mice receiving the vehicle alone;
Mice receiving doxorubicin (10 mg/kg) alone;
Three days after doxorubicin administration, the mice were sacrificed and the number of nucleated cells in bone marrow was determined as described above.
Where [13] appears, read: Cyclophosphamide (50 mg/kg) alone (−), 72 hours.
Where [14] appears, read: Table 6A, Doxorubicin (8 mg/kg) alone.
Setting [15] is: Table 5A, Doxorubicin (4 mg/kg) alone.
[16] abbreviates: Table 5A, Doxorubicin (8 mg/kg) alone.
[17] abbreviates: Table 5B, Doxorubicin (4 mg/kg) alone.
[18] abbreviates: Table 5B, Doxorubicin (8 mg/kg) alone.

“Also recorded” adds a separate entry of the source. Read-outs that look alike come from different tables or passages of the source.

Method for A-9 cells: Following one hour incubation with the tyrphostins, TNF-α was added to the cells at a concentration of 0.2 ng/ml and the cells were incubated for an additional ten hours. At the end of ten hours, the cell cultures were analyzed by FACS using propidium iodide and the extent of apoptosis in each of the cell cultures (seen as DNA fragmentation) was determined (see Novogrodsky, A., et al., Science, 264:1319-1322, 1994).
The effect of tyrphostins on TNF-induced cytotoxicity was determined in vitro using A-9 cells as described in Example 39 above.
Method for B-16 melanoma: Mice were injected i.v. with 2×10^5 B-16 melanoma cells and 4 days after tumor inoculation each mouse received a single i.p. injection of doxorubicin (4 mg/kg or 8 mg/kg).
Method for CD1 female mice: CD1 female mice were divided into the following groups:
A control group receiving a single i.p. injection of the vehicle only (co-solvent: propylene carbonate-cremophor-saline);
Mice receiving a single i.p. injection of 5-fluorouracil (5 FU) at a dose of 80 mg/kg;
Five days after the administration of 5 FU to the mice, the mice were sacrificed and the number of nucleated cells in the bone marrow of one femur, were counted. Each group of mice consisted of two or three mice and the results shown are the mean number of cells counted±SD.
Method for MCA-105 fibrosarcoma: as §2, §3
C57BL mice were divided into the following groups:
Mice injected i.v. at the age of 6 weeks with 2×10^5 fibrosarcoma MCA105 cells and 4 days' later, receiving an injection comprising the vehicle only;
Mice injected i.v. at the age of 6 weeks with 2×10^5 fibrosarcoma MCA105 cells and 4 days' later, injected with 10 mg/kg of doxorubicin;
Method for SK-28 human melanoma: CD1 athymic mice (nu/nu) were inoculated i.v. with 4×10^5/mouse SK-28 human melanoma. Doxorubicin (4 mg/kg) was injected i.p. 4 days after tumor inoculation.

As to `O=c1[nH]cc(F)c(=O)[nH]1` [5 FU, 5-fluorouracil], the “number of nucleated cells in the bone marrow” value in the data set on CD1 female mice was “decrease in the number of nucleated cells”.
`N#CC(C#N)=Cc1ccc([N+](=O)[O-])c(O)c1` [AG126]: the “Apoptosis (%)” value in [1] (TNF-α (0.2 ng/ml) +, ten hours, cycloheximide 50 μg/ml, tyrphostins 20 μM, except AG1801 5 μM) was 19.4%; in data set [1] (TNF-α −, cycloheximide 50 μg/ml, tyrphostins 20 μM, except AG1801 5 μM) it was 8.3%. Also, the “live cells, % of control” value with A-9 cells (TNF 0.05 ng/ml) was 75 % of control; in the data set on A-9 cells (TNF 0.2 ng/ml) it was 49 % of control; with A-9 cells (TNF 1.0 ng/ml), 33 % of control; with A-9 cells (TNF None) it was 107 % of control. Moreover, in the data set with CD1 mice [2], the “% alive mice” value was 80%. Moreover, in the data set with CD1 mice [2], the alive/total is given as 4/5.
`N#CC(=Cc1ccc([N+](=O)[O-])cc1)C(N)=S` [AG1744]: the “nephrotoxicity of cisplatin (serum creatinine level)” value in the data set with CD1 mice [3] is “markedly reduced the nephrotoxicity of cisplatin”.
As for `N.N.[Cl][Pt][Cl]` [Cisplatin, cisplatin], in the data set with CD1 mice [4], the mortality result is on record as “all the mice in the group receiving cisplatin alone died within ten days”. Moreover, the histopathology of kidneys entry in the data set with CD1 mice [5] (cisplatin 14 mg/kg alone (FIG. 7B)) is reported as “large proteinaceous plaques in the proximal tubals; also recorded: large proteinaceous plaques in the proximal tubules”. Also, the “histopathology of small intestine” value with CD1 mice [5] (cisplatin 14 mg/kg alone (FIG. 7E)) was “severe necrosis and disintegration of the columnar intestinal epithelial cells; also recorded: severe necrosis and damage”. Moreover, the “anti-tumor effect (lungs' weight, established lung metastases)” value is “markedly inhibited the growth” with MCA-105 fibrosarcoma (agent by itself: cisplatin 4 mg/kg or AG1714 20 mg/kg i.p., 24 days (FIG. 21A)); “partial anti-tumor effect” in [6]; “not effective” in the data set on B-16 melanoma (agent alone: Cisplatin (4 mg/kg) or AG1714 (20 mg/kg) (FIG. 21C)). For the same compound, the “weight of the lungs of tumor bearing mice” value was “reduced the weight of the mice's lungs to a weight similar to that of control non tumor bearing mice” with MCA-105 fibrosarcoma and “reduced the weight of the lungs of the tumor bearing mice to an extent” in the data set with SK-28 human melanoma (single agent: cisplatin or AG1801 (FIG. 26)). Moreover, the “anti-tumor effect (tumor volume)” value in data set [7] is recorded as “marked anti-tumor effect”.
`O=P1(N(CCCl)CCCl)NCCCO1` (stereo not drawn) [Cyclophosphamide, cyclophosphamide]: in the data set on CD1 mice [8] (setting [13]), the “Nucleated cells in bone marrow (× 10^6)” value is reported as 6.2 × 10^6, the “Spleen” value came out at 52 mg and the “Thymus” value came out at 39 mg. Also, the “number of nucleated cells in the bone marrow, spleen and thymus” value in the data set on CD1 mice [8] (cyclophosphamide 50 mg/kg alone) is “significant reduction in the number of nucleated cells”.
For `COc1cccc2c1C(=O)c1c(O)c3c(c(O)c1C2=O)C[C@@](O)(C(=O)CO)C[C@@H]3O[C@H]1C[C@H](N)[C@H](O)[C@H](C)O1` [Doxorubicin, doxorubicin], the “mortality of the mice” value in the data set with CD1 mice [9] (10 i.p. doxorubicin injections 5 mg/kg over 21 days, alone) is reported as “high mortality”. Moreover, the “% mortality” value with CD1 mice [9] (doxorubicin 20 mg/kg i.p. alone, within a week after injection) is given as 90%. Further, the “Cellular beating (beats/min)” value in [10] is recorded as 15 ± 1.3 beats/min. For the same compound, the “number of beats per minute relative to control cultures” value in data set [10] is “about 20%”. The “weight of spleens and thymuses” value with CD1 mice [11] is recorded as “significant reduction in the weight of spleens”. For the same compound, the “Mortality (dead/total)” value in the data set with MCA-105 fibrosarcoma (Table 6A, Doxorubicin (4 mg/kg) alone) is given as 0/5; in the data set with MCA-105 fibrosarcoma (setting [14]), 5/8; with B-16 melanoma (setting [15]), 0/4; in the data set with B-16 melanoma (setting [16]), 3/4; in the data set on B-16 melanoma (setting [17]), 0/6; with B-16 melanoma (setting [18]), 7/8. Moreover, the “Lungs' weight (mg + SEM)” value with MCA-105 fibrosarcoma (setting [14]) is 170 ± 4 mg; in the data set with B-16 melanoma (setting [17]) it was 306 ± 12 mg. Further, the “Mortality, percent in brackets” value in the data set with MCA-105 fibrosarcoma (setting [14]) amounted to 62.5%; with B-16 melanoma (setting [16]), 75%; in the data set on B-16 melanoma (setting [18]), 88%. Moreover, the “weight of the lungs of tumor bearing mice” value in the data set on MCA-105 fibrosarcoma is listed as “reduced the weight of the mice's lungs to a weight similar to that of control non tumor bearing mice”. The “growth of the SK-28 tumor (lungs' weight, metastases)” value in the data set with SK-28 human melanoma (agent by itself: doxorubicin 4 mg/kg or AG1714 20 mg/kg, 24 days (FIG. 22)) is on record as “markedly suppressed the growth”. Besides, the entries for the “No. of lungs' metastases (+ SD)” value in the data set on B-16 melanoma (setting [15]) and in the data set with B-16 melanoma (setting [16]) were 7 ± 4 and 1, respectively. For the same compound, the “reduction in CFU” value with CD1 mice [12] is 55%.
In the case of TNF-α, in [1] (TNF-α (0.2 ng/ml) alone), the “Cell cycle % G1” value was 85.8%, the “Cell cycle % G2 + M” value worked out at 6.6% and the “Cell cycle % S” value was 7.6%. For the same compound, in data set [1] (Table 9, TNF-α (0.2 ng/ml) alone), the Apoptosis (%) was 28.7%.
